Assay results as given in patent US20060100226A1, “2-Thiopyrimidinones as therapeutic agents” (priority 2004, published 2006).
pIC50: −log10 of the molar value.

Biological target: T1, murine MEKK2 (mMEKK2) (Mus musculus, UniProt Q61083)
T1 sequence (Q61083 1-619): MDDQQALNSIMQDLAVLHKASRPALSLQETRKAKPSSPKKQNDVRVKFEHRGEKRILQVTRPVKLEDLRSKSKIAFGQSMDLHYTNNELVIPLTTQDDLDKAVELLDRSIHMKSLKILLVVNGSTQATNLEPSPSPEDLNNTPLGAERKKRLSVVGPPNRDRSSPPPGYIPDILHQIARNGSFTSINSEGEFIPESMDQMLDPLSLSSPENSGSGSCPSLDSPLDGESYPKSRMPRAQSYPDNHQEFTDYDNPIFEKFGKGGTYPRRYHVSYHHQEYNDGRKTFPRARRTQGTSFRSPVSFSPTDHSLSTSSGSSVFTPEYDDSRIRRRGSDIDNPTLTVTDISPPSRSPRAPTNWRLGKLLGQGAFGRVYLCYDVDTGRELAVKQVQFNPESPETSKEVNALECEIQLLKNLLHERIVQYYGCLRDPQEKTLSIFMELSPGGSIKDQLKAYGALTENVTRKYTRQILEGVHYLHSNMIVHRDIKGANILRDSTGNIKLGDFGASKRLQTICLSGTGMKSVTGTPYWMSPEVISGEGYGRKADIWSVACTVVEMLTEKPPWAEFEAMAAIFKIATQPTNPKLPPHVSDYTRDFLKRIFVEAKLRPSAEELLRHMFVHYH
Assay: TR-FRET kinase assay (mMEKK2/MBP)
Type: biochemical
Conditions: substrate biotin MBP, 60 minutes at room temperature
Protocol: In one approach, MEKK2 inhibitory activity of compounds of the invention can be assessed using the time-resolved Fluorescence Resonance Energy Transfer (TR-FRET) assay detailed in Example 5. In this assay, the excitation energy of one fluorescent molecule (the donor) is transferred by a resonance mechanism to a nearby second fluorescent molecule (the acceptor), which then releases its fluorescent energy through fluorescent emission. This fluorescent energy is measured using a time-resolved fluorescence measurement protocol (LANCE high count 615/665); excitation occurred with 1,000 flashes at 325 nm, measurement was delayed by 100 μs, and data were acquired for 50 μs at 615 and 665 nm.
A TR-FRET kinase assay was used to screen potential inhibitors of MEKK2. The assay was performed as follows: Compounds to be tested were weighed and solubilized in DMSO (Sigma) to a stock concentration of 10 mM. Serial dilutions starting from 1 mM were prepared with additional DMSO. These dilutions were further diluted to 250 μM in kinase reaction buffer [20 mM Hepes pH 7.5, 5 mM MgCl2, 1 mM DTT (Dithiothreitol-Sigma), 1 mM NaVO4 (sodium vanadate-Sigma). A 25 μl aliquot of this solution was transferred to a black 96-well nonbinding surface microplate (Fisher). A stock aliquot containing […] of murine MEKK2 (mMEKK2) was diluted in the kinase reaction buffer and incubated with the compounds on the microplate for 10 minutes. A 25 μl aliquot of a 138 ng solution of biotin MBP (myelin basic protein—Upstate Biotechnology) was added to the reaction followed by 25 ul of a 25 ng solution of anti-phospho MBP antibody (Upstate Biotechnology) diluted in kinase reaction buffer. Finally an aliquot (50 μl) of a 5 uM solution of ATP (adenosine triphosphate) was added and the reaction was allowed to proceed for 60 minutes at room temperature. The reaction was stopped by the addition of 50 μL of a 12.5 ng solution of europium labeled anti-mouse IgG (Perkin Elmer) and 45 ng of Cy5 labeled streptavidin (Jackson Immunoresearch) in termination buffer (20 mM Hepes pH 7.5, 100 mM EDTA; Sigma). The assay was allowed to equilibrate for 45 minutes before placing the plate on the Victor™ plate reader. The plate was read using the 615/665 LANCE protocol.

| Structure (SMILES) | pIC50 |
| --- | --- |
| COc1cccc(-c2nc(SCc3ccc(NC(=O)c4ccc(F)c(C(F)(F)F)c4)cc3)[nH]c(=O)c2C#N)c1 [Example 2rr] | > 5.30 |
| COc1cccc(-c2nc(SCc3cccc(NC(=O)c4sccc4C)c3)[nH]c(=O)c2C#N)c1 [Example 2s] | > 5.00 |
| COc1cccc(-c2nc(SCc3ccc(NC(=O)c4cccc(C(F)(F)F)c4)cc3)[nH]c(=O)c2C#N)c1 [Example 2ss] | > 5.30 |
| COc1cccc(-c2nc(SCc3cccc(NC(=O)c4cnn(C)c4Cl)c3)[nH]c(=O)c2C#N)c1 [Example 2t] | > 4.40 |
| COc1cccc(-c2nc(SCc3ccc(NC(=O)c4ccc(Cl)c(Cl)c4)cc3)[nH]c(=O)c2C#N)c1 [Example 2tt] | > 6.00 |
| COc1cccc(-c2nc(SCc3cccc(NC(=O)c4ccc(OC)cc4OC)c3)[nH]c(=O)c2C#N)c1 [Example 2u] | > 4.70 |
| COc1cccc(-c2nc(SCc3ccc(NC(=O)c4cc(C)nn4C(C)(C)C)cc3)[nH]c(=O)c2C#N)c1 [Example 2uu] | > 4.70 |
| COc1cccc(-c2nc(SCc3cccc(NC(=O)c4csc(Cl)c4OC)c3)[nH]c(=O)c2C#N)c1 [Example 2v] | > 4.70 |
| COc1cccc(-c2nc(SCc3ccc(NC(=O)Cc4ccccc4)cc3)[nH]c(=O)c2C#N)c1 [Example 2vv] | > 4.70 |
| COc1cccc(-c2nc(SCc3cccc(NC(=O)c4cc(C)nn4C(C)(C)C)c3)[nH]c(=O)c2C#N)c1 [Example 2w] | > 4.40 |
| COc1cccc(-c2nc(SCc3ccc(NC(=O)c4c(F)cc(F)cc4F)cc3)[nH]c(=O)c2C#N)c1 [Example 2ww] | > 4.70 |
| COc1cccc(-c2nc(SCc3cccc(NC(=O)c4cc(Cl)nc(OC)c4)c3)[nH]c(=O)c2C#N)c1 [Example 2x] | > 5.00 |
| COc1cccc(-c2nc(SCc3ccc(NC(=O)C4CCN(c5nccc(C(F)(F)F)n5)CC4)cc3)[nH]c(=O)c2C#N)c1 [Example 2xx] | < 4.40 |
| COc1cccc(-c2nc(SCc3ccc(NC(=O)c4ccc(Cl)nc4)cc3)[nH]c(=O)c2C#N)c1 [Example 2yy] | > 4.70 |
| COc1cccc(-c2nc(SCc3ccc(NC(=O)c4cccnc4Oc4ccc(Cl)cc4)cc3)[nH]c(=O)c2C#N)c1 [Example 2zz] | < 4.40 |
| COc1cccc(-c2nc(SCc3ccc(NC(=O)Nc4cccc5nsnc45)cc3)[nH]c(=O)c2C#N)c1 [Example 3aa] | > 6.00 |
| COc1cccc(-c2nc(SCc3cccc(NC(=O)Nc4cc(F)cc(F)c4)c3)[nH]c(=O)c2C#N)c1 [Example 3b, 1-{3-[5-Cyano-4-(3-methoxy-phenyl)-6-oxo-1,6-dihydro-pyrimidin-2-ylsulfanylmethyl]-phenyl}-3-(3,5-difluoro-phenyl)-urea] | > 5.30 |
| COc1cccc(-c2nc(SCc3ccc(NC(=O)NC4CCNCC4)cc3)[nH]c(=O)c2C#N)c1 [Example 3bb] | < 4.40 |
| COc1cccc(-c2nc(SCc3cccc(NC(=O)NCc4ccccc4)c3)[nH]c(=O)c2C#N)c1 [Example 3c] | > 5.30 |
| COc1cccc(-c2nc(SCc3cccc(NC(=O)Nc4ccccc4)c3)[nH]c(=O)c2C#N)c1 [Example 3d] | > 5.30 |
| COc1cccc(-c2nc(SCc3cccc(NC(=O)NCCc4cccs4)c3)[nH]c(=O)c2C#N)c1 [Example 3e] | > 5.30 |
| COc1cccc(-c2nc(SCc3cccc(NC(=O)NC4CCCC4)c3)[nH]c(=O)c2C#N)c1 [Example 3f] | > 5.30 |
| COc1cccc(-c2nc(SCc3cccc(NC(=O)NCc4ccco4)c3)[nH]c(=O)c2C#N)c1 [Example 3g] | > 5.00 |
| COc1cccc(-c2nc(SCc3cccc(NC(=O)NCc4cc(OC)c(OC)c(OC)c4)c3)[nH]c(=O)c2C#N)c1 [Example 3i] | > 4.40 |
| COc1cccc(-c2nc(SCc3cccc(NC(=O)Nc4ccc5c(c4)OCCO5)c3)[nH]c(=O)c2C#N)c1 [Example 3j] | > 5.00 |
| COc1cccc(-c2nc(SCc3cccc(NC(=O)NCCc4ccc5c(c4)OCO5)c3)[nH]c(=O)c2C#N)c1 [Example 3k] | > 5.00 |
| COc1cccc(-c2nc(SCc3ccc(NC(=O)NCc4ccccc4)cc3)[nH]c(=O)c2C#N)c1 [Example 3l] | > 5.00 |
